Legend:
[1] = biological target: IDH1-R132 homodimer enzyme (R132H) (Homo sapiens (Human), UniProt O75874, R132H); test: In vitro assay IDH1-R132H homodimer, NADPH depletion assay; type: biochemical
Procedure: (§1) The following describes the experimental procedures that can be used to obtain data on columns 3 and 6 of Table 4.
(§2) A test compound is prepared as 10 mM stock in DMSO and diluted to 50× final concentration in DMSO, for a 50 μl reaction mixture. IDH enzyme activity converting alpha-ketoglutarate to 2-hydroxyglutaric acid is measured using a NADPH depletion assay. In the assay the remaining cofactor is measured at the end of the reaction with the addition of a catalytic excess of diaphorase and resazurin, to generate a fluorescent signal in proportion to the amount of NADPH remaining. […] The reaction is started with the addition of 10 μl of Substrate Mix ([…], 5 mM alpha-ketoglutarate, in Assay Buffer) and the mixture is incubated for 90 minutes at room temperature.

[2] = biological target: IDH1 R132C (Homo sapiens (Human), UniProt O75874, R132C); test: In vitro assay IDH1 R132C homodimer, NADPH depletion assay; type: biochemical
Sequence of IDH1 R132C (O75874 whole entry R132C): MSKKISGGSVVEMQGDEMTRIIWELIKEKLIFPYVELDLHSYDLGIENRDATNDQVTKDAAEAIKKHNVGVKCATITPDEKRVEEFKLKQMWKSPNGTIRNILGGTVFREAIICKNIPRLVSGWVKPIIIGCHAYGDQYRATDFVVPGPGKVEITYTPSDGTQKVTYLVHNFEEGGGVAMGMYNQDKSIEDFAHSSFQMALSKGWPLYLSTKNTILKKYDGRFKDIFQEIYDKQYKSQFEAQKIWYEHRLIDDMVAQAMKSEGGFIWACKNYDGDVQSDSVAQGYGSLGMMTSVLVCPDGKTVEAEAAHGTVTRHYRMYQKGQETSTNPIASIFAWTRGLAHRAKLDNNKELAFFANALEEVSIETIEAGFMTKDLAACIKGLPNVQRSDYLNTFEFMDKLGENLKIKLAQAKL
Procedure: as §1, §2
The concentration of NADPH and alpha-ketoglutarate in the Substrate Buffer is 20 μM and 1 mM, respectively.

[3] = biological target: IDH1 wt/IDH1 R132H heterodimer (Homo sapiens (Human), UniProt O75874, R132H); test: In vitro assay for IDH1m R132H inhibitors, IDH1 wt/IDH1 R132H heterodimer, NADPH depletion (diaphorase/resazurin); type: biochemical; settings: IDH1 wt/R132H heterodimer, NADPH/NADP, not saturated; read-out: IDH1 wt/R132H NADPH/NADP IC50 not saturated
Sequence of IDH1 wt/IDH1 R132H heterodimer (O75874 whole entry R132H): as the sequence (O75874 whole entry R132C) above, with C132H counted along it
Sequence of IDH1 wt/IDH1 R132H heterodimer (O75874 whole entry, stated change not applied): as the sequence (O75874 whole entry R132C) above, with C132R counted along it
In short: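 Read-out is NADPH left after α-KG reduction to 2-HG, measured via resorufin fluorescence after 5 min diaphorase/resazurin step at 25° C. Enzyme is sf9-expressed IDH1wt-his/IDH1R132H-flag heterodimer, pre-incubated 1 hr at room temperature with compound and cofactor. IC50s from DMSO stocks diluted 1:50.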

[4] = biological target: IDH1 wt/IDH1 R132C heterodimer (Homo sapiens (Human), UniProt O75874, R132C); test: In vitro assay for IDH1m R132C inhibitors, IDH1 wt/IDH1 R132C heterodimer, NADPH depletion (diaphorase/resazurin); type: biochemical; settings: NADPH/NADP
Sequence of IDH1 wt/IDH1 R132C heterodimer (O75874 whole entry R132C): as the sequence (O75874 whole entry R132C) above
Sequence of IDH1 wt/IDH1 R132C heterodimer (O75874 whole entry, stated change not applied): as the sequence (O75874 whole entry R132C) above, with C132R counted along it
Procedure: The following describes the experimental procedures that can be used to obtain data on columns 2 and 4 of Table 4 and column 2 of Table 5.
In the primary reaction, the reduction of α-KG acid to 2-HG is accompanied by a concomitant oxidation of NADPH to NADP. The amount of NADPH remaining at the end of the reaction time is measured in a secondary diaphorase/resazurin reaction in which the NADPH is consumed in a 1:1 molar ratio with the conversion of resazurin to the highly fluorescent resorufin.
The mixture of compound, enzyme, and cofactor is pre-incubated at room temperature for 1 hr prior to the addition of alpha-ketoglutarate. To perform the secondary reaction, 10 uL of 1× buffer containing 36 μg/ml diaphorase and […] resazurin is added to the primary reaction and incubated for a further 5 minutes at 25° C. Florescence is read on a Spectramax platereader at Ex 544 Em 590. Compounds or compound dilutions are prepared in 100% DMSO concentration and diluted 1:50 into the final reaction. […] IC50s are determined.
IDH1 or IDH2 wildtype (wt) and mutant heterodimers are expressed and purified by methods known in the art. For example, IDH1wt/R132m heterodimer is expressed and purified as follows. Co-expression of IDH1wt-his and IDH1R132C-flag is carried out in sf9 insect cells. Cells (25 g) are resuspended in 250 ml of 50 mM Tirs, 500 mM NaCl, pH7.4, at 4° C. with stirring. Cells are disrupted with 4 passes through an M-Y110 Micro fluidizer (Microfluidics) set to 500 psi, and then centrifuged at 22,000 rcf for 20 min at 4° C. The supernatant is harvested and loaded at 15 cm/h on a Histrap FF 5*1 ml column (GE) which is equilibrated with 50 mM Tirs, 500 mM NaCl, pH7.4. Host cell contaminants are removed by washing the column with equilibration buffer followed by equilibration buffer containing 20 mM imidazole and 60 mM imidazole to baseline. IDH1wt-his homodimer and IDH1wt-his/IDH1R132C-flag are eluted by equilibration buffer containing 250 mM imidazole. Fractions eluted by 250 mM imidazole are pooled together and loaded at 15 cm/h onto a column pre-packed with 10 ml ANTI-FLAG® M2 Affinity Gel (Sigma), the column is equilibrated with 50 mM Tris, 500 mM NaCl, pH7.4. After washing with equilibration buffer, IDH1wt-his/IDH1R132C-flag heterodimer is eluted by equilibration buffer containing flag peptide (0.2 mg/ml). Aliquots of IDH1wt-his/IDH1R132C-flag are flash frozen in liquid N2 and stored at −80° C. Same conditions are used for the purification of IDH1wt-his/IDH1R132H-flag.

[5] = biological target: IDH1-R132H homodimer enzyme (Homo sapiens (Human), UniProt O75874, R132H); test: In vitro assay IDH1-R132H homodimer, NADPH depletion assay with NADPH/NADP preincubation; type: biochemical; settings: 5 μM NADPH and 37.5 μM NADP
Sequence of IDH1-R132H homodimer enzyme (O75874 whole entry R132H): as the sequence (O75874 whole entry R132C) above, with C132H counted along it
In short: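 Compounds were added from DMSO at 50× final concentration, and the mutant enzyme was incubated 60 min at room temperature after starting with a substrate mix holding NADPH and 5 mM alpha-ketoglutarate. Residual cofactor, read by fluorescence after excess diaphorase and resazurin, reflects enzyme turnover.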

[6] = biological target: IDH2 R140Q (Homo sapiens (Human), UniProt P48735, R140Q); test: In vitro assay for IDH2m R140Q inhibitors, cofactor depletion assay; type: biochemical; settings: IDH2 R140Q enzyme
Sequence of IDH2 R140Q (P48735 40-452 R140Q): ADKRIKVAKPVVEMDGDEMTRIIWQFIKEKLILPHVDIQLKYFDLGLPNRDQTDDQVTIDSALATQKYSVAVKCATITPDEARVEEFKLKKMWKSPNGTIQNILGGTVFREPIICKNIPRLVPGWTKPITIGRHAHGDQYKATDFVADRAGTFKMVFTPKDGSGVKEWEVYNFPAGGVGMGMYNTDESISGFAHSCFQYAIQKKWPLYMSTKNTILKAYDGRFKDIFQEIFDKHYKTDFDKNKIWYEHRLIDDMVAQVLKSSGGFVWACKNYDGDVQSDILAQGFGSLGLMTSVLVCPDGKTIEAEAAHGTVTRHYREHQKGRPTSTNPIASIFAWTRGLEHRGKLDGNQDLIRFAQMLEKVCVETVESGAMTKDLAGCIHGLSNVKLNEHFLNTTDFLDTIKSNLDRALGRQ
In short: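 Remaining cofactor measured fluorimetrically: diaphorase/resazurin Stop Mix […], halting the reaction. Before that, mutant enzyme and compound sat 1 h at RT, then substrate mix (4 μM NADPH, 1.6 mM α-KG) was added for 16 h at RT.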

[7] = tested on: U87MG pLVX-IDH2 R140Q-neo cells; test: U87MG pLVX-IDH2 R140Q-neo cell based assay, 2-HG by LC-MS; settings: Homo sapiens, U-87 MG
[8] = tested on: HT1080 cells; test: Cellular assay for IDH1m R132C inhibitors, 2-HG by LC-MS in HT1080 cells; type: cell-based; settings: Homo sapiens, HT-1080
In short: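 2-HG levels were measured by LC-MS in culture medium sampled 48 h after compound addition (0.2% DMSO) to HT1080 cells seeded overnight at 5000 cells/well. A CellTiter-Glo luminescence read at 72 h gave cell viability.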

[9] = tested on: Neurosphere cells (TS603); test: Cellular assay for IDH1m R132H inhibitors, 2-HG by LC-MS in neurosphere cells (TS603); type: cell-based; settings: 2-HG in media at 48 hours
In short: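 TS603 neurosphere cells in NeuroCult medium were dosed with compound (0.25% DMSO final) at 37 C, 5% CO2. After 48 hours, medium 2-HG was measured by LC-MS. At 72 hours, viability was read by CellTiter-Glo luminescence.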

Sequence of IDH1-R132 homodimer enzyme (R132H) (O75874 whole entry R132H): as the sequence (O75874 whole entry R132C) above, with C132H counted along it

SMILES | IC50 [1] [nM] | IC50 [2] [nM] | IC50 [3] [nM] | IC50 [4] [nM] | IC50 [5] [nM] | also measured
C[C@@H](Nc1nc(NCc2ccccn2)nc(-c2cccc(C(F)(F)F)n2)n1)C1CC1 [Compound 24, (R)-N^2-(1-cyclopropylethyl)-N^4-(pyridin-2-ylmethyl)-6-(6-(trifluoro-methyl)pyridin-2-yl)-1,3,5-triazine-2,4-diamine] | > 1000 | > 1000 | – | – | – | –
CC(C)Nc1nc(NC(C)C)nc(-c2cccc(C(F)(F)F)n2)n1 [Compound 3] | 100 to 1000 | 50 to 100 | – | – | – | –
FC1(F)CCC(Nc2nc(NC3CCC(F)(F)CC3)nc(-c3cccc(OC(F)(F)F)n3)n2)CC1 [Compound 296] | – | – | 100 to 1000 | ≥ 1000 | > 1000 | –
C[C@@H](Nc1nc(N[C@H]2CCC[C@H]2O)nc(-c2cccc(C(F)(F)F)n2)n1)C1CC1 [Compound 43] | 100 to 1000 | > 1000 | – | – | – | –
CC(=O)CNc1nc(N[C@H](C)C2CC2)nc(-c2cccc(C(F)(F)F)n2)n1 [Compound 15] | > 1000 | > 1000 | – | – | – | –
C[C@@H](Nc1nc(N[C@H](C)C2CC2)nc(-c2cccc(C(F)(F)F)n2)n1)C(=O)O [Compound 47] | > 1000 | – | – | – | – | IDH1 R132C IC50 [2]: No Fit
C[C@@H](Nc1nc(NC2CCOC2)nc(-c2cccc(C(F)(F)F)n2)n1)C1CC1 (stereo partly drawn) [Compound 38] | 50 to 100 | 100 to 1000 | – | – | – | –
COc1ccc(F)c(-c2nc(NC(C)C)nc(NC(C)(C)C#N)n2)c1 [Compound 32] | > 1000 | > 1000 | – | – | – | –
C[C@@H](Nc1nc(N[C@H](C)C2CC2)nc(-c2cccnc2)n1)C1CC1 [Compound 92, N^2,N^4-bis((R)-1-cyclopropylethyl)-6-(pyridin-3-yl)-1,3,5-triazine-2,4-diamine] | – | – | > 1000 | ≥ 1000 | – | –
N#Cc1ccc2c(c1)CC(Nc1nc(NC3CCC(F)(F)C3)nc(-c3cccc(C(F)(F)F)n3)n1)C2 (stereo not drawn) [Compound 242] | – | – | 50 to 100 | 50 to 100 | 100 to 1000 | –
C[C@@H](Nc1nc(NC(=O)c2ccccc2)nc(-c2cccc(C(F)(F)F)n2)n1)C1CC1 [Compound 29] | 100 to 1000 | > 1000 | – | – | – | –
C[C@@H](Nc1nc(N[C@H](C)C2CC2)nc(-n2cc(I)cn2)n1)C1CC1 [Compound 279] | – | – | 100 to 1000 | 100 to 1000 | > 1000 | IC50 [6]: 100 to 1000 nM; IC50 [7]: 100 to 1000 nM
COc1ccc(F)c(-c2nc(NC3CCC(F)(F)CC3)nc(NC3CCC(F)(F)CC3)n2)n1 [Compound 321] | – | – | > 1000 | ≥ 1000 | > 1000 | –
FC1(F)CCC(Nc2nc(NC3CCOC3)nc(-c3cccc(C(F)(F)F)n3)n2)C1 (stereo not drawn) [Compound 52] | – | – | 50 to 100 | < 50 | – | –
C[C@@H](Nc1nc(N[C@H]2CCCC[C@@H]2O)nc(-c2cccc(C(F)(F)F)n2)n1)C1CC1 [Compound 42] | 50 to 100 | 100 to 1000 | – | – | – | –
Fc1cc(F)cc(Nc2nc(NC3CCC(F)(F)CC3)nc(-c3nc(F)ccc3F)n2)c1 [Compound 260] | – | – | 100 to 1000 | 50 to 100 | – | IC50 [6]: < 50 nM; IC50 [8]: > 1000 nM; IC50 [7]: < 50 nM
CC(C)(C)OC(=O)N1CCC(Nc2nc(NC3CCC(F)(F)C3)nc(-c3cccc(C(F)(F)F)n3)n2)C1 (stereo not drawn) [Compound 53] | – | – | 100 to 1000 | 50 to 100 | – | –
Cc1cc(-c2nc(NC3CC(F)(F)C3)nc(NC3CC(F)(F)C3)n2)no1 [Compound 311] | – | – | > 1000 | ≥ 1000 | > 1000 | –
FC(F)(F)c1cccc(-c2nc(NCC3CC3)cc(NCC3CC3)n2)n1 [Compound 419] | > 1000 | – | – | – | 100 to 1000 | IC50 [7]: 100 to 1000 nM
Fc1cc(F)cc(Nc2nc(NC3CCC(F)(F)CC3)nc(-c3cccc(C(F)(F)F)n3)n2)c1 [Compound 125] | – | – | < 50 | < 50 | – | IC50 [6]: < 50 nM; IC50 [7]: < 50 nM; IC50 [9]: < 50 nM
FC1(F)CCC(Nc2nc(NC3CCC(F)(F)CC3)nc(-c3c[nH]nc3C(F)(F)F)n2)CC1 [Compound 297] | – | – | 100 to 1000 | 100 to 1000 | > 1000 | –
FC1(F)CCC(Nc2nc(NC3CCC(F)(F)CC3)nc(-c3ccnc(C(F)(F)F)n3)n2)CC1 [Compound 270] | – | – | 100 to 1000 | 100 to 1000 | > 1000 | IC50 [6]: 100 to 1000 nM; IC50 [7]: 100 to 1000 nM
C[C@@H](Nc1nc(NC2CC3(C2)CC(F)(F)C3)nc(-c2cccc(C(F)(F)F)n2)n1)C1CC1 [Compound 58] | – | – | < 50 | < 50 | – | –
FC1(F)CCC(Nc2nc(NC3CCC(F)(F)CC3)nc(-n3cc(Cl)cn3)n2)CC1 [Compound 302] | – | – | 100 to 1000 | 100 to 1000 | > 1000 | IC50 [6]: 100 to 1000 nM; IC50 [7]: 100 to 1000 nM
Fc1ccc(F)c(-c2nc(NC3CCC(F)(F)CC3)nc(NC3CCC(F)(F)CC3)n2)n1 [Compound 276] | – | – | 100 to 1000 | 100 to 1000 | > 1000 | –
Cc1nc(-c2nc(NC3CC(F)(F)C3)nc(NC3CC(F)(F)C3)n2)co1 [Compound 301] | – | – | 100 to 1000 | ≥ 1000 | > 1000 | –

— patent US10028961B2, “Therapeutically active compounds and their methods of use” (AGIOS PHARMACEUTICALS, INC., priority 2013, dated 2018)
